Data reported in patent US20210371385A1, “POLYMORPHIC AND AMORPHOUS FORMS OF ISOQUINOLINONE AND METHODS OF USE THEREOF” (Sojournix, Inc., priority 2018, published 2021).
Values after ≈ are worked out from the molar mass of the structure shown. Read-outs that look alike come from different tables or passages of the source.

Assay: Solubility in buffered solutions vs pH at 37 °C (HPLC)
Type: physicochemical
Conditions: thermodynamic from solid, read-out: Solubility at 24 h
Description: Aqueous buffers between pH 1.3 and 7.4 (13 total) were prepared and 3 mL added to about 15 mg of SJB-01 (L100149-44-1, jet-milled). These slurries were stirred on a hot-plate at 37° C. for 24 hours. Sonication and vortexting was employed within the first 2 hours of stirring to ensure thorough mixing and wetting of the solids as there was a clear tendency for them to clump and float at the liquid surface. After sonication and vortexing there was substantial solids suspended in solution (slurry) along with the solids that floated on top. At 24 hours, the samples were collected by syringe filtration of about 2 mL of solution. The first 1 mL of solution that passed through the filter was discarded and the second 0.5-1 mL of solution was used for HPLC analysis. The samples were injected into HPLC without dilution.
SJB-01 (L100149-44-1) was weighed directly into volumetric flasks and filled to volume with ACN:water (6:4 vol.) to build a calibration curve. […] Details for the HPLC method used are given in Table 34; these follow the parameters used for previous dissolution study.

Molecule `CCNn1c(C)c(C(=O)N[C@H](c2ccccc2)C2CC2)c2cccc(F)c2c1=O` [SJB-01, 2-Ethylamino-8-fluoro-3-methyl-1-oxo-1,2-dihydro-isoquinoline-4-carboxylic acid ((S)-cyclopropyl-phenyl-methyl)-amide] has a solubility at 24 h (Britton-Robinson 0.05M buffer, aqueous buffer, Britton-Robinson 0.05M, initial pH 2.21, 24 h pH 2.22, 37 °C) of 7.9 µg/mL (≈ 20.1 µM), a solubility at 24 h (Britton-Robinson 0.05M buffer, aqueous buffer, Britton-Robinson 0.05M, initial pH 2.85, 24 h pH 2.97, 37 °C) of 7.4 µg/mL (≈ 18.8 µM) and a solubility at 24 h (Britton-Robinson 0.05M buffer, aqueous buffer, Britton-Robinson 0.05M, initial pH 4.95, 24 h pH 5.01, 37 °C) of 7.7 µg/mL (≈ 19.6 µM). For the same molecule, the solubility at 24 h (Citric acid/NaOH 0.05M buffer, aqueous buffer, Citric acid/NaOH 0.05M, initial pH 2.86, 24 h pH 2.88, 37 °C) was 8.1 µg/mL (≈ 20.6 µM), the solubility at 24 h (Citric acid/NaOH 0.05M buffer, aqueous buffer, Citric acid/NaOH 0.05M, initial pH 3.82, 24 h pH 3.85, 37 °C) was 7.5 µg/mL (≈ 19.1 µM) and the solubility at 24 h (Citric acid/NaOH 0.05M buffer, pH 4.9, aqueous buffer, Citric acid/NaOH 0.05M, initial pH 4.90, 24 h pH 4.90, 37 °C) was 7.2 µg/mL (≈ 18.3 µM). The solubility at 24 h (HCl/KCl 0.05M buffer, aqueous buffer, HCl/KCl 0.05M, initial pH 2.13, 24 h pH 2.16, 37 °C) was 7.5 µg/mL (≈ 19.1 µM), the solubility at 24 h (HCl/KCl 0.05M buffer, pH 1.3, simulated gastric fluid, HCl/KCl 0.05M, initial pH 1.34, 24 h pH 1.30, 37 °C, jet-milled beta form) was 7.8 µg/mL (≈ 19.8 µM) and the solubility at 24 h (KH2PO4/NaOH 0.05M buffer, aqueous buffer, KH2PO4/NaOH 0.05M, initial pH 5.98, 24 h pH 6.04, 37 °C) was 7.1 µg/mL (≈ 18 µM). For the same molecule, the solubility at 24 h (KH2PO4/NaOH 0.05M buffer, aqueous buffer, KH2PO4/NaOH 0.05M, initial pH 7.46, 24 h pH 7.47, 37 °C) was 6.4 µg/mL (≈ 16.3 µM), the solubility at 24 h (KHP/HCl 0.05M buffer, aqueous buffer, KHP/HCl 0.05M, initial pH 3.18, 24 h pH 3.14, 37 °C) was 9.5 µg/mL (≈ 24.1 µM) and the solubility at 24 h (KHP/HCl 0.05M buffer, aqueous buffer, KHP/HCl 0.05M, initial pH 3.89, 24 h pH 3.94, 37 °C) was 9.8 µg/mL (≈ 24.9 µM). For the same molecule, the solubility at 24 h (KHP/NaOH 0.05M buffer, aqueous buffer, KHP/NaOH 0.05M, initial pH 4.96, 24 h pH 4.99, 37 °C) was 8.3 µg/mL (≈ 21.1 µM).
